Measurements as given in patent publication US20060069132A1, “Azolecarboxamide herbicides” (priority 2004, published 2006).

Columns and labels:
barnyardgrass = assay: Test A pre-/postemergence herbicide test; format: in vivo, Echinochloa crus-galli
Method in brief: (§1)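 Visual injury rating on a 0–100 scale (0 no effect, 100 complete control) versus untreated controls, about ten days after treatment in greenhouse. Pre: directed soil spray onto seeded sandy loam. Post: spray to runoff on plants 2–10 cm tall at one- to two-leaf stage.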

large crabgrass = assay: Test A pre-/postemergence herbicide test; format: in vivo, Digitaria sanguinalis
Method in brief: as §1

giant foxtail = assay: Test A pre-/postemergence herbicide test; format: in vivo, Setaria faberi
Method in brief: as §1

redroot pigweed = assay: Test A pre-/postemergence herbicide test; format: in vivo, Amaranthus retroflexus
Method in brief: as §1

bermudagrass = assay: Test C pre-/postemergence herbicide test; format: in vivo, Cynodon dactylon; settings: for Bermudagrass plant response rating: 500 g ai/ha
Method in brief: (§2)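 Pre- and postemergence application, solvent/surfactant formulation; post at 1- to 4-leaf stage (2–18 cm). Greenhouse 12–14 d. Visual rating vs controls, 0 = no effect, 100 = complete control.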

Surinam grass = assay: Test C pre-/postemergence herbicide test; format: in vivo, Urochloa decumbens
Method in brief: as §2

woolly cupgrass = assay: Test C pre-/postemergence herbicide test; format: in vivo, Eriochloa villosa
Method in brief: as §2

johnsongrass = assay: Test C pre-/postemergence herbicide test; format: in vivo, Sorghum halepense
Method in brief: as §2

morningglory = assay: Test C pre-/postemergence herbicide test; format: in vivo, Ipomoea coccinea; parameters: key to Plant response rating, Morningglory: 0 = no effect, 100 = complete control
Method in brief: as §2

[1] = Postemergence, 500 g ai/ha, 0 to 100 scale, 0 no effect, 100 complete control
[2] = Postemergence, 2000 g ai/ha, 0 to 100 scale, 0 no effect, 100 complete control
[3] = Preemergence, 2000 g ai/ha, visual rating, 0 to 100 scale (0 no effect, 100 complete control)
[4] = preemergence, 500 g ai/ha, visual injury, 0 to 100 scale (0 no effect, 100 complete control)
[5] = 125 g ai/ha, scale 0 (no effect) to 100 (complete control), visual, 12 to 14 days, preemergence
[6] = 250 g ai/ha, scale 0-100, preemergence
[7] = 62 g ai/ha, preemergence, scale 0 to 100
[8] = 500 g ai/ha, scale 0 to 100 (0 no effect, 100 complete control), visual, 12 to 14 days, preemergence
[9] = Postemergence, 500 g ai/ha, scale 0 to 100
[10] = Postemergence, 250 g ai/ha, scale 0 to 100, 0 no effect, 100 complete control
[11] = postemergence, 125 g ai/ha, scale 0 to 100
[12] = postemergence, 62 g ai/ha, scale 0 to 100
[13] = Postemergence, 500 g ai/ha, scale 0 to 100, 0 no effect, 100 complete control

C=CCNC(=O)c1cccc(NC(=O)c2cc(C(C)(C)C)nn2C)n1 [Compound 318]
Barnyardgrass plant response rating (barnyardgrass; [1]): 65 | Plant response rating, Barnyardgrass (barnyardgrass; [2]): 90 | Barnyardgrass plant response rating (barnyardgrass; [3]): 95 | Barnyardgrass plant response rating (barnyardgrass; [4]): 65 | Crabgrass, Large plant response rating (large crabgrass; [1]): 30 | Plant response rating, Crabgrass, Large (large crabgrass; [2]): 70 | Crabgrass, Large plant response rating (large crabgrass; [3]): 70 | Crabgrass, Large plant response rating (large crabgrass; [4]): 55 | Foxtail, Giant plant response rating (giant foxtail; [1]): 50 | Plant response rating, Foxtail, Giant (giant foxtail; [2]): 90 | Foxtail, Giant plant response rating (giant foxtail; [3]): 85 | Foxtail, Giant plant response rating (giant foxtail; [4]): 40 | Pigweed plant response rating (redroot pigweed; [1]): 95 | Plant response rating, Pigweed (redroot pigweed; [2]): 100 | Pigweed plant response rating (redroot pigweed; [3]): 100 | Pigweed plant response rating (redroot pigweed; [4]): 75 | Plant response rating, Bermudagrass (bermudagrass; 62 g ai/ha, preemergence, scale 0 to 100, 0 no effect, 100 complete control): 10 | Plant response rating, Bermudagrass (bermudagrass; [5]): 70 | Plant response rating, Bermudagrass (bermudagrass; [6]): 90 | Bermudagrass plant response rating (bermudagrass; Postemergence, scale 0 to 100): 80 | Bermudagrass plant response rating (bermudagrass; Preemergence, scale 0 to 100, 0 no effect, 100 complete control): 95 | Plant response rating, Surinam Grass (Surinam grass; [7]): 10 | Plant response rating, Surinam Grass (Surinam grass; [6]): 50 | Plant response rating, Surinam Grass (Surinam grass; [8]): 60 | Surinam Grass plant response rating (Surinam grass; [9]): 10 | Plant response rating, Surinam Grass (Surinam grass; [10]): 0 | Plant response rating, Surinam Grass (Surinam grass; [11]): 0 | Plant response rating, Surinam Grass (Surinam grass; [12]): 0 | Plant response rating, Cupgrass, Woolly (woolly cupgrass; [7]): 0 | Plant response rating, Cupgrass, Woolly (woolly cupgrass; [5]): 0 | Plant response rating, Cupgrass, Woolly (woolly cupgrass; [6]): 0 | Plant response rating, Cupgrass, Woolly (woolly cupgrass; [8]): 10 | Cupgrass, Woolly plant response rating (woolly cupgrass; [9]): 20 | Plant response rating, Cupgrass, Woolly (woolly cupgrass; [10]): 10 | Plant response rating, Cupgrass, Woolly (woolly cupgrass; [11]): 0 | Plant response rating, Cupgrass, Woolly (woolly cupgrass; [12]): 0 | Plant response rating, Johnsongrass (johnsongrass; [7]): 0 | Plant response rating, Johnsongrass (johnsongrass; [5]): 0 | Plant response rating, Johnsongrass (johnsongrass; [6]): 60 | Plant response rating, Johnsongrass (johnsongrass; [8]): 95 | Johnsongrass plant response rating (johnsongrass; [9]): 0 | Plant response rating, Johnsongrass (johnsongrass; [10]): 0 | Plant response rating, Johnsongrass (johnsongrass; [11]): 0 | Plant response rating, Johnsongrass (johnsongrass; [12]): 0 | Plant response rating, Morningglory (morningglory; [7]): 0 | Plant response rating, Morningglory (morningglory; [5]): 0 | Plant response rating, Morningglory (morningglory; [6]): 0 | Plant response rating, Morningglory (morningglory; [8]): 85 | Morningglory plant response rating (morningglory; [9]): 0 | Plant response rating, Morningglory (morningglory; [10]): 0 | Plant response rating, Morningglory (morningglory; [11]): 0 | Plant response rating, Morningglory (morningglory; [12]): 0

CCn1nc(C(C)(C)C)cc1C(=O)Nc1cc(OC(F)(F)F)ccc1F [Compound 338]
Barnyardgrass plant response rating (barnyardgrass; [1]): 20 | Plant response rating, Barnyardgrass (barnyardgrass; [2]): 35 | Barnyardgrass plant response rating (barnyardgrass; [3]): 95 | Barnyardgrass plant response rating (barnyardgrass; [4]): 60 | Crabgrass, Large plant response rating (large crabgrass; [1]): 20 | Plant response rating, Crabgrass, Large (large crabgrass; [2]): 45 | Crabgrass, Large plant response rating (large crabgrass; [3]): 100 | Crabgrass, Large plant response rating (large crabgrass; [4]): 65 | Foxtail, Giant plant response rating (giant foxtail; [1]): 20 | Plant response rating, Foxtail, Giant (giant foxtail; [2]): 30 | Foxtail, Giant plant response rating (giant foxtail; [3]): 100 | Foxtail, Giant plant response rating (giant foxtail; [4]): 80 | Pigweed plant response rating (redroot pigweed; [1]): 70 | Plant response rating, Pigweed (redroot pigweed; [2]): 95 | Pigweed plant response rating (redroot pigweed; [3]): 90 | Pigweed plant response rating (redroot pigweed; [4]): 55 | Bermudagrass plant response rating (bermudagrass; Postemergence, scale 0 to 100): 5 | Plant response rating, Bermudagrass (bermudagrass; [10]): 0 | Plant response rating, Bermudagrass (bermudagrass; [11]): 0 | Plant response rating, Bermudagrass (bermudagrass; [12]): 0 | Plant response rating, Surinam Grass (Surinam grass; [10]): 0 | Plant response rating, Surinam Grass (Surinam grass; [13]): 30 | Plant response rating, Surinam Grass (Surinam grass; [11]): 0 | Plant response rating, Surinam Grass (Surinam grass; [12]): 0 | Plant response rating, Cupgrass, Woolly (woolly cupgrass; [10]): 0 | Plant response rating, Cupgrass, Woolly (woolly cupgrass; [13]): 0 | Plant response rating, Cupgrass, Woolly (woolly cupgrass; [11]): 0 | Plant response rating, Cupgrass, Woolly (woolly cupgrass; [12]): 0 | Plant response rating, Johnsongrass (johnsongrass; [10]): 0 | Plant response rating, Johnsongrass (johnsongrass; [13]): 0 | Plant response rating, Johnsongrass (johnsongrass; [11]): 0 | Plant response rating, Johnsongrass (johnsongrass; [12]): 0 | Plant response rating, Morningglory (morningglory; [10]): 40 | Plant response rating, Morningglory (morningglory; [13]): 50 | Plant response rating, Morningglory (morningglory; [11]): 0 | Plant response rating, Morningglory (morningglory; [12]): 0
